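Tested at 5 concentrations; 48 h exposure; 96-well plates; endpoints linearly interpolated, else capped at highest concentration. TGI: total growth inhibition.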
How the values were obtained:
Test in all cases: NCI tumour cell line growth inhibition, 48 h
HOP-92 NSCLC = tested on: HOP-92 NSCLC
HS 578T breast = tested on: HS 578T breast
MOLT-4 leukemia = tested on: MOLT-4 leukemia
UO-31 renal = tested on: UO-31 renal
786-0 renal = tested on: 786-0 renal
SR leukemia = tested on: SR leukemia
A549 NSCLC = tested on: A549 NSCLC
SNB-75 CNS = tested on: SNB-75 CNS
T-47D breast = tested on: T-47D breast
UACC-257 melanoma = tested on: UACC-257 melanoma
HL-60(TB) leukemia = tested on: HL-60(TB) leukemia
NCI/ADR-RES ovarian = tested on: NCI/ADR-RES ovarian
NCI-H460 lung = tested on: NCI-H460 lung
SNB-19 CNS = tested on: SNB-19 CNS
NCI-H23 lung = tested on: NCI-H23 lung
CCRF-CEM leukemia = tested on: CCRF-CEM leukemia
EKVX NSCLC = tested on: EKVX NSCLC
A498 renal = tested on: A498 renal
K-562 leukemia = tested on: K-562 leukemia
RXF 393 renal = tested on: RXF 393 renal
OVCAR-3 ovarian = tested on: OVCAR-3 ovarian
DU-145 prostate = tested on: DU-145 prostate
NCI-H226 lung = tested on: NCI-H226 lung
PC-3 prostate = tested on: PC-3 prostate
SK-OV-3 ovarian = tested on: SK-OV-3 ovarian
COLO 205 colon = tested on: COLO 205 colon
TK-10 renal = tested on: TK-10 renal
KM12 colon = tested on: KM12 colon
MDA-MB-435 = tested on: MDA-MB-435
U251 CNS = tested on: U251 CNS
HCT-15 colon = tested on: HCT-15 colon
UACC-62 melanoma = tested on: UACC-62 melanoma
MDA-N = tested on: MDA-N
SN12C renal = tested on: SN12C renal
OVCAR-5 ovarian = tested on: OVCAR-5 ovarian
M14 melanoma = tested on: M14 melanoma
HOP-62 NSCLC = tested on: HOP-62 NSCLC
HT29 colon = tested on: HT29 colon
ACHN renal = tested on: ACHN renal
CAKI-1 renal = tested on: CAKI-1 renal
SF-539 CNS = tested on: SF-539 CNS
HCT-116 colon = tested on: HCT-116 colon
NCI-H522 lung = tested on: NCI-H522 lung
IGROV1 ovarian = tested on: IGROV1 ovarian
SW-620 colon = tested on: SW-620 colon
SK-MEL-2 melanoma = tested on: SK-MEL-2 melanoma
RPMI-8226 leukemia = tested on: RPMI-8226 leukemia
HCC-2998 colon = tested on: HCC-2998 colon
MDA-MB-231 breast = tested on: MDA-MB-231 breast
SK-MEL-5 melanoma = tested on: SK-MEL-5 melanoma
SF-295 CNS = tested on: SF-295 CNS
MCF7 breast = tested on: MCF7 breast
MALME-3M melanoma = tested on: MALME-3M melanoma
SF-268 CNS = tested on: SF-268 CNS
LOX IMVI melanoma = tested on: LOX IMVI melanoma
OVCAR-8 ovarian = tested on: OVCAR-8 ovarian
SK-MEL-28 melanoma = tested on: SK-MEL-28 melanoma
OVCAR-4 ovarian = tested on: OVCAR-4 ovarian
BT-549 breast = tested on: BT-549 breast

Compound: CCn1c(O)c(C=Nc2ccccc2)s/c1=N/Nc1ncc(CC(=O)Nc2ccccc2C)s1
- TGI (HOP-92 NSCLC): > 100 µM
- TGI (HS 578T breast): > 100 µM
- TGI (MOLT-4 leukemia): > 100 µM
- TGI (UO-31 renal): > 100 µM
- TGI (786-0 renal): > 100 µM
- TGI (SR leukemia): > 100 µM
- TGI (A549 NSCLC): > 100 µM
- TGI (SNB-75 CNS): > 100 µM
- TGI (T-47D breast): > 100 µM
- TGI (UACC-257 melanoma): > 100 µM
- TGI (HL-60(TB) leukemia): > 100 µM
- TGI (NCI/ADR-RES ovarian): > 100 µM
- TGI (NCI-H460 lung): > 100 µM
- TGI (SNB-19 CNS): > 100 µM
- TGI (NCI-H23 lung): > 100 µM
- TGI (CCRF-CEM leukemia): > 100 µM
- TGI (EKVX NSCLC): > 100 µM
- TGI (A498 renal): > 100 µM
- TGI (K-562 leukemia): > 100 µM
- TGI (RXF 393 renal): > 100 µM
- TGI (OVCAR-3 ovarian): > 100 µM
- TGI (DU-145 prostate): > 100 µM
- TGI (NCI-H226 lung): > 100 µM
- TGI (PC-3 prostate): > 100 µM
- TGI (SK-OV-3 ovarian): > 100 µM
- TGI (COLO 205 colon): > 100 µM
- TGI (TK-10 renal): > 100 µM
- TGI (KM12 colon): > 100 µM
- TGI (MDA-MB-435): > 100 µM
- TGI (U251 CNS): > 100 µM
- TGI (HCT-15 colon): > 100 µM
- TGI (UACC-62 melanoma): > 100 µM
- TGI (MDA-N): > 100 µM
- TGI (SN12C renal): > 100 µM
- TGI (OVCAR-5 ovarian): > 100 µM
- TGI (M14 melanoma): > 100 µM
- TGI (HOP-62 NSCLC): > 100 µM
- TGI (HT29 colon): > 100 µM
- TGI (ACHN renal): > 100 µM
- TGI (CAKI-1 renal): > 100 µM
- TGI (SF-539 CNS): > 100 µM
- TGI (HCT-116 colon): > 100 µM
- TGI (NCI-H522 lung): > 100 µM
- TGI (IGROV1 ovarian): > 100 µM
- TGI (SW-620 colon): > 100 µM
- TGI (SK-MEL-2 melanoma): > 100 µM
- TGI (RPMI-8226 leukemia): > 100 µM
- TGI (HCC-2998 colon): > 100 µM
- TGI (MDA-MB-231 breast): > 100 µM
- TGI (SK-MEL-5 melanoma): > 100 µM
- TGI (SF-295 CNS): > 100 µM
- TGI (MCF7 breast): > 100 µM
- TGI (MALME-3M melanoma): > 100 µM
- TGI (SF-268 CNS): > 100 µM
- TGI (LOX IMVI melanoma): > 100 µM
- TGI (OVCAR-8 ovarian): > 100 µM
- TGI (SK-MEL-28 melanoma): > 100 µM
- TGI (OVCAR-4 ovarian): > 100 µM

Compound: O=C1/C(=C/c2ccco2)N=C(c2ccccc2)N1c1ccc(S(=O)(=O)Nc2nccs2)cc1
- TGI (HOP-92 NSCLC): > 100 µM
- TGI (MOLT-4 leukemia): > 100 µM
- TGI (UO-31 renal): > 100 µM
- TGI (786-0 renal): > 100 µM
- TGI (SR leukemia): > 100 µM
- TGI (A549 NSCLC): > 100 µM
- TGI (SNB-75 CNS): > 100 µM
- TGI (T-47D breast): > 100 µM
- TGI (UACC-257 melanoma): 89.5 µM
- TGI (HL-60(TB) leukemia): > 100 µM
- TGI (BT-549 breast): > 100 µM
- TGI (NCI/ADR-RES ovarian): > 100 µM
- TGI (NCI-H460 lung): > 100 µM
- TGI (NCI-H23 lung): > 100 µM
- TGI (CCRF-CEM leukemia): > 100 µM
- TGI (EKVX NSCLC): > 100 µM
- TGI (K-562 leukemia): > 100 µM
- TGI (RXF 393 renal): > 100 µM
- TGI (OVCAR-3 ovarian): > 100 µM
- TGI (DU-145 prostate): > 100 µM
- TGI (NCI-H226 lung): > 100 µM
- TGI (PC-3 prostate): > 100 µM
- TGI (SK-OV-3 ovarian): > 100 µM
- TGI (COLO 205 colon): > 100 µM
- TGI (TK-10 renal): > 100 µM
- TGI (KM12 colon): > 100 µM
- TGI (MDA-MB-435): > 100 µM
- TGI (U251 CNS): > 100 µM
- TGI (HCT-15 colon): 94.5 µM
- TGI (UACC-62 melanoma): > 100 µM
- TGI (MDA-N): > 100 µM
- TGI (SN12C renal): > 100 µM
- TGI (OVCAR-5 ovarian): > 100 µM
- TGI (M14 melanoma): > 100 µM
- TGI (HOP-62 NSCLC): > 100 µM
- TGI (HT29 colon): > 100 µM
- TGI (ACHN renal): > 100 µM
- TGI (CAKI-1 renal): > 100 µM
- TGI (SF-539 CNS): > 100 µM
- TGI (HCT-116 colon): > 100 µM
- TGI (NCI-H522 lung): > 100 µM
- TGI (IGROV1 ovarian): > 100 µM
- TGI (SW-620 colon): > 100 µM
- TGI (SK-MEL-2 melanoma): > 100 µM
- TGI (RPMI-8226 leukemia): > 100 µM
- TGI (HCC-2998 colon): > 100 µM
- TGI (MDA-MB-231 breast): > 100 µM
- TGI (SK-MEL-5 melanoma): > 100 µM
- TGI (SF-295 CNS): > 100 µM
- TGI (MCF7 breast): > 100 µM
- TGI (MALME-3M melanoma): > 100 µM
- TGI (SF-268 CNS): > 100 µM
- TGI (LOX IMVI melanoma): > 100 µM
- TGI (OVCAR-8 ovarian): > 100 µM
- TGI (OVCAR-4 ovarian): > 100 µM

Reference: PubChem BioAssay (NCI)
